{
  "source": "paper PMC5218480",
  "about": "(PLoS ONE, 2017)",
  "tested_on": "MV-4-11 cells",
  "experiment": "Gene expression microarray analysis (Affymetrix PrimeView) and GSEA",
  "type": "cell-based, human",
  "set-up": "RFU PODN (11730768_x_at) / Fold change /veh PODN (11730768_x_at) / RFU LINC00158 (11744669_a_at) / Fold change /veh LINC00158 (11744669_a_at) / RFU DUSP10 (11751237_a_at) / Fold change /veh DUSP10 (11751237_a_at) / RFU ID3 (11757404_x_at) / Fold change /veh ID3 (11757404_x_at) / RFU PLEKHG5 (11737974_s_at) / Fold change /veh PLEKHG5 (11737974_s_at) / RFU LRRC4B (11730491_at) / Fold change /veh LRRC4B (11730491_at) / RFU GIMAP4 (11747438_a_at) / Fold change /veh GIMAP4 (11747438_a_at) / RFU KRT8 (11758183_x_at) / Fold change /veh KRT8 (11758183_x_at) / RFU CNN1 (11734310_a_at) / Fold change /veh CNN1 (11734310_a_at) / RFU VPS37D (11726825_at) / Fold change /veh VPS37D (11726825_at) / RFU C10orf10 (11716522_x_at) / Fold change /veh C10orf10 (11716522_x_at) / RFU KIR2DL2 /// KIR2DL4 /// KIR2DL5A /// KIR2DL5B /// KIR2DS1 /// KIR2DS2 /// KIR2DS3 /// KIR2DS4 /// KIR3DL3 /// KIR3DL3 /// KIR3DS1 (11738374_at) / Fold change /veh KIR2DL2 /// KIR2DL4 /// KIR2DL5A /// KIR2DL5B /// KIR2DS1 /// KIR2DS2 /// KIR2DS3 /// KIR2DS4 /// KIR3DL3 /// KIR3DL3 /// KIR3DS1 (11738374_at) / RFU C1QL1 (11718748_at) / Fold change /veh C1QL1 (11718748_at) / RFU TMPRSS4 (11747572_a_at) / Fold change /veh TMPRSS4 (11747572_a_at) / RFU HAMP (11756126_x_at) / Fold change /veh HAMP (11756126_x_at) / RFU RNFT2 (11725882_a_at) / Fold change /veh RNFT2 (11725882_a_at) / RFU NR4A2 (11747474_a_at) / Fold change /veh NR4A2 (11747474_a_at) / RFU ABCC12 (11746883_a_at) / Fold change /veh ABCC12 (11746883_a_at) / RFU TMEM136 (11760407_x_at) / Fold change /veh TMEM136 (11760407_x_at) / RFU CLDN22 /// WWC2 (11732394_at) / Fold change /veh CLDN22 /// WWC2 (11732394_at) / RFU HLA-DPB1 (11760878_x_at) / Fold change /veh HLA-DPB1 (11760878_x_at) / RFU SPINT1 (11716480_a_at) / Fold change /veh SPINT1 (11716480_a_at) / RFU GAP43 (11754022_s_at) / Fold change /veh GAP43 (11754022_s_at) / RFU A4GNT (11735810_at) / Fold change /veh A4GNT (11735810_at) / RFU PRB3 (11715151_x_at) / Fold change /veh PRB3 (11715151_x_at) / RFU TUBB4B (11761932_at) / Fold change /veh TUBB4B (11761932_at) / RFU CAPN14 (11732068_a_at) / Fold change /veh CAPN14 (11732068_a_at) / RFU TMCC2 (11721928_a_at) / Fold change /veh TMCC2 (11721928_a_at) / RFU IRGQ (11745062_a_at) / Fold change /veh IRGQ (11745062_a_at) / RFU FAM174B (11720279_a_at) / Fold change /veh FAM174B (11720279_a_at) / RFU TMPRSS4 (11748680_a_at) / Fold change /veh TMPRSS4 (11748680_a_at) / RFU FAM212B (11763350_a_at) / Fold change /veh FAM212B (11763350_a_at) / RFU PLEKHG5 (11743358_a_at) / Fold change /veh PLEKHG5 (11743358_a_at) / RFU ZSCAN30 (11745921_a_at) / Fold change /veh ZSCAN30 (11745921_a_at) / RFU CMKLR1 (11741424_a_at) / Fold change /veh CMKLR1 (11741424_a_at) / RFU LOC101060620 /// MAPK8IP1 (11723275_at) / Fold change /veh LOC101060620 /// MAPK8IP1 (11723275_at) / RFU SPTSSB (11747773_x_at) / Fold change /veh SPTSSB (11747773_x_at) / RFU PRSS12 (11739890_at) / Fold change /veh PRSS12 (11739890_at) / RFU BIN1 (11741810_x_at) / Fold change /veh BIN1 (11741810_x_at) / RFU WNT11 (11732464_a_at) / Fold change /veh WNT11 (11732464_a_at) / RFU C10orf10 (11716521_a_at) / Fold change /veh C10orf10 (11716521_a_at) / RFU C5orf56 (11738089_at) / Fold change /veh C5orf56 (11738089_at) / RFU CYB561 (11721691_x_at) / Fold change /veh CYB561 (11721691_x_at) / RFU ANKRD19P (11752326_a_at) / Fold change /veh ANKRD19P (11752326_a_at) / RFU OR2T12 /// OR2T33 /// OR2T8 (11738714_s_at) / Fold change /veh OR2T12 /// OR2T33 /// OR2T8 (11738714_s_at) / RFU VCAN (11748164_a_at) / Fold change /veh VCAN (11748164_a_at) / RFU JSRP1 (11732532_at) / Fold change /veh JSRP1 (11732532_at) / RFU KRTAP10-11 (11738290_x_at) / Fold change /veh KRTAP10-11 (11738290_x_at) / RFU MYO3A (11730013_a_at) / Fold change /veh MYO3A (11730013_a_at) / RFU EBF3 (11725865_a_at) / Fold change /veh EBF3 (11725865_a_at) / RFU CAMK2N1 (11719241_x_at) / Fold change /veh CAMK2N1 (11719241_x_at) / RFU C5orf56 (11738088_a_at) / Fold change /veh C5orf56 (11738088_a_at) / RFU OLFML3 (11715873_a_at) / Fold change /veh OLFML3 (11715873_a_at) / RFU LOC100653217 /// NTM (11731650_a_at) / Fold change /veh LOC100653217 /// NTM (11731650_a_at) / RFU MAPK11 (11762145_a_at) / Fold change /veh MAPK11 (11762145_a_at) / RFU FIZ1 (11724087_x_at) / Fold change /veh FIZ1 (11724087_x_at) / RFU OASL (11726364_x_at) / Fold change /veh OASL (11726364_x_at) / RFU SOX15 (11748057_x_at) / Fold change /veh SOX15 (11748057_x_at) / RFU CD79A (11719716_a_at) / Fold change /veh CD79A (11719716_a_at) / RFU HIST1H1D (11736915_at) / Fold change /veh HIST1H1D (11736915_at) / RFU CASKIN2 (11723855_a_at) / Fold change /veh CASKIN2 (11723855_a_at) / RFU LOC730098 (11760151_x_at) / Fold change /veh LOC730098 (11760151_x_at) / RFU OR4N2 (11742367_at) / Fold change /veh OR4N2 (11742367_at) / RFU PRRT2 (11749266_a_at) / Fold change /veh PRRT2 (11749266_a_at) / RFU SNX32 (11753110_a_at) / Fold change /veh SNX32 (11753110_a_at) / RFU CDHR5 (11726645_a_at) / Fold change /veh CDHR5 (11726645_a_at) / RFU RCAN1 (11760418_a_at) / Fold change /veh RCAN1 (11760418_a_at) / RFU FAM167A (11723789_a_at) / Fold change /veh FAM167A (11723789_a_at) / RFU FAM26E (11764081_at) / Fold change /veh FAM26E (11764081_at) / RFU ISYNA1 (11749810_s_at) / Fold change /veh ISYNA1 (11749810_s_at) / RFU ACY1 (11761880_at) / Fold change /veh ACY1 (11761880_at) / RFU 11764098_at / Fold change /veh 11764098_at / RFU SAMD14 (11745864_x_at) / Fold change /veh SAMD14 (11745864_x_at) / RFU NPB (11741838_a_at) / Fold change /veh NPB (11741838_a_at) / RFU TMPRSS6 (11731388_a_at) / Fold change /veh TMPRSS6 (11731388_a_at) / RFU KRTAP10-2 (11738614_at) / Fold change /veh KRTAP10-2 (11738614_at) / RFU ARHGAP8 /// PRR5-ARHGAP8 (11727945_x_at) / Fold change /veh ARHGAP8 /// PRR5-ARHGAP8 (11727945_x_at) / RFU KRTAP5-7 /// NADSYN1 (11734609_at) / Fold change /veh KRTAP5-7 /// NADSYN1 (11734609_at) / RFU RASL12 (11751679_a_at) / Fold change /veh RASL12 (11751679_a_at) / RFU CDKN2B (11736163_a_at) / Fold change /veh CDKN2B (11736163_a_at) / RFU PRF1 (11729649_at) / Fold change /veh PRF1 (11729649_at) / RFU, ZNF638 /// ZNF638-IT1 / Fold change vs veh, ZNF638 /// ZNF638-IT1 / RFU, PANK3 / Fold change vs veh, PANK3 / RFU, SH3YL1 / Fold change vs veh, SH3YL1 / RFU, ZEB2 / Fold change vs veh, ZEB2 / RFU, NRIP1 / Fold change vs veh, NRIP1 / RFU, PTTG1IP / Fold change vs veh, PTTG1IP / RFU, CAPN2 / Fold change vs veh, CAPN2 / RFU, MED14 / Fold change vs veh, MED14 / RFU, SNORA58 / Fold change vs veh, SNORA58 / RFU, C1orf63 / Fold change vs veh, C1orf63 / RFU, LRRFIP1 / Fold change vs veh, LRRFIP1 / RFU, NDUFAF7 / Fold change vs veh, NDUFAF7 / RFU, SLC12A2 / Fold change vs veh, SLC12A2 / RFU, IBTK / Fold change vs veh, IBTK / RFU, ESF1 / Fold change vs veh, ESF1 / Fold change vs veh, TMEM50B / RFU, TAOK1 / Fold change vs veh, TAOK1 / RFU, ACBD3 / Fold change vs veh, ACBD3 / RFU, TMA16 / Fold change vs veh, TMA16 / RFU, RWDD3 / Fold change vs veh, RWDD3 / RFU, BCAT1 / Fold change vs veh, BCAT1 / RFU, EDEM3 / Fold change vs veh, EDEM3 / RFU, TMEM33 / Fold change vs veh, TMEM33 / RFU, WDR75 / Fold change vs veh, WDR75 / RFU, AHCTF1 / Fold change vs veh, AHCTF1 / RFU, TFRC / Fold change vs veh, TFRC / RFU, ZDHHC17 / Fold change vs veh, ZDHHC17 / RFU, NOM1 / Fold change vs veh, NOM1 / RFU, ARL8B / Fold change vs veh, ARL8B / RFU, ZBTB11 / Fold change vs veh, ZBTB11 / RFU, TAMM41 / Fold change vs veh, TAMM41 / RFU, KIAA1704 /// LOC100996395 / Fold change vs veh, KIAA1704 /// LOC100996395 / RFU, ING1 / Fold change vs veh, ING1 / RFU, TRMT61B / Fold change vs veh, TRMT61B / RFU, FUBP3 / Fold change vs veh, FUBP3 / RFU, TP53 / Fold change vs veh, TP53 / RFU, TNKS2 / Fold change vs veh, TNKS2 / RFU, ZFP14 / Fold change vs veh, ZFP14 / RFU, ACTR2 / Fold change vs veh, ACTR2 / RFU, PPP3R1 / Fold change vs veh, PPP3R1 / RFU, PIK3R1 / Fold change vs veh, PIK3R1 / RFU, HNRNPA1 / Fold change vs veh, HNRNPA1 / RFU, RNF170 / Fold change vs veh, RNF170 / RFU, ZNF28 / Fold change vs veh, ZNF28 / RFU, RNGTT / Fold change vs veh, RNGTT / RFU, OGT / Fold change vs veh, OGT / RFU, BRD1 / Fold change vs veh, BRD1 / RFU, MARS / Fold change vs veh, MARS / RFU, ZNF655 / Fold change vs veh, ZNF655 / RFU, FAHD1 / Fold change vs veh, FAHD1 / RFU, BDP1 / Fold change vs veh, BDP1 / RFU, LRRCC1 / Fold change vs veh, LRRCC1 / RFU, ARID1A / Fold change vs veh, ARID1A / RFU, ZNF146 / Fold change vs veh, ZNF146 / RFU, ZNF330 / Fold change vs veh, ZNF330 / RFU, GPN3 / Fold change vs veh, GPN3 / RFU, C9orf123 / Fold change vs veh, C9orf123 / RFU, N4BP2L2 / Fold change vs veh, N4BP2L2 / RFU, ARFIP1 / Fold change vs veh, ARFIP1 / RFU, FAM179B / Fold change vs veh, FAM179B / RFU, BCL10 / Fold change vs veh, BCL10 / RFU, UHRF1BP1L / Fold change vs veh, UHRF1BP1L / RFU, BET1 / Fold change vs veh, BET1 / RFU, CNOT2 / Fold change vs veh, CNOT2 / RFU, ZNF268 / Fold change vs veh, ZNF268 / Fold change vs veh, ZNF507 / RFU, DGCR2 / Fold change vs veh, DGCR2 / RFU, WDSUB1 / Fold change vs veh, WDSUB1 / Fold change vs veh, HSP90B1 /// MIR3652 / RFU, ADSS / Fold change vs veh, ADSS / RFU, GK / Fold change vs veh, GK / RFU, ZNF148 / Fold change vs veh, ZNF148 / RFU, TAF9 / Fold change vs veh, TAF9 / RFU, SLC1A5 / Fold change vs veh, SLC1A5 / RFU, SLMO2 / Fold change vs veh, SLMO2 / RFU, ABCC4 / Fold change vs veh, ABCC4 / RFU, LOC101060439 /// RAP1B / Fold change vs veh, LOC101060439 /// RAP1B / RFU, RFX7 / Fold change vs veh, RFX7 / RFU, GTPBP10 / Fold change vs veh, GTPBP10 / RFU, CNEP1R1 / Fold change vs veh, CNEP1R1 / RFU, BIVM-ERCC5 /// ERCC5 / Fold change vs veh, BIVM-ERCC5 /// ERCC5 / RFU, ILF3 / Fold change vs veh, ILF3 / RFU 11762660_at / Fold change /veh 11762660_at / RFU VCAN (11757783_s_at) / Fold change /veh VCAN (11757783_s_at) / RFU DDX43 (11728927_at) / Fold change /veh DDX43 (11728927_at) / RFU KRT8 (11758188_x_at) / Fold change /veh KRT8 (11758188_x_at) / RFU NKD1 (11759106_at) / Fold change /veh NKD1 (11759106_at) / RFU SRD5A1 (11742802_a_at) / Fold change /veh SRD5A1 (11742802_a_at) / RFU TPSAB1 /// TPSB2 (11721975_s_at) / Fold change /veh TPSAB1 /// TPSB2 (11721975_s_at) / RFU GSTM3 (11746129_a_at) / Fold change /veh GSTM3 (11746129_a_at) / RFU IL23R (11737362_x_at) / Fold change /veh IL23R (11737362_x_at) / RFU TMEM51 (11727254_a_at) / Fold change /veh TMEM51 (11727254_a_at) / RFU PIWIL2 (11732686_x_at) / Fold change /veh PIWIL2 (11732686_x_at) / RFU ORM1 (11744905_x_at) / Fold change /veh ORM1 (11744905_x_at) / RFU CCDC152 (11743942_at) / Fold change /veh CCDC152 (11743942_at) / RFU ECM1 (11717891_a_at) / Fold change /veh ECM1 (11717891_a_at) / RFU IL23R (11748794_a_at) / Fold change /veh IL23R (11748794_a_at) / RFU TNFAIP8L3 (11732012_x_at) / Fold change /veh TNFAIP8L3 (11732012_x_at) / RFU MBOAT4 (11741988_at) / Fold change /veh MBOAT4 (11741988_at) / RFU 11764193_at / Fold change /veh 11764193_at / RFU TMEM53 (11763286_at) / Fold change /veh TMEM53 (11763286_at) / RFU MAGEB2 (11727129_at) / Fold change /veh MAGEB2 (11727129_at) / RFU TMEM200A (11744735_a_at) / Fold change /veh TMEM200A (11744735_a_at) / RFU CCDC152 (11751479_a_at) / Fold change /veh CCDC152 (11751479_a_at) / RFU FAM211A (11726209_a_at) / Fold change /veh FAM211A (11726209_a_at) / RFU RGS16 (11746705_a_at) / Fold change /veh RGS16 (11746705_a_at) / RFU VCAN (11755009_s_at) / Fold change /veh VCAN (11755009_s_at) / RFU RHOB (11743442_s_at) / Fold change /veh RHOB (11743442_s_at) / RFU RGS16 (11720943_a_at) / Fold change /veh RGS16 (11720943_a_at) / RFU RGS16 (11720944_at) / Fold change /veh RGS16 (11720944_at) / RFU, VPS4B / Fold change vs veh, VPS4B / RFU, CREB1 / Fold change vs veh, CREB1 / RFU, DNAJC13 / Fold change vs veh, DNAJC13 / RFU, GNAQ / Fold change vs veh, GNAQ / RFU, CDK5R1 / Fold change vs veh, CDK5R1 / RFU, ZRANB3 / Fold change vs veh, ZRANB3 / RFU, CUL4A / Fold change vs veh, CUL4A / RFU, CCNY / Fold change vs veh, CCNY / RFU, UFL1 / Fold change vs veh, UFL1 / RFU, COG3 / Fold change vs veh, COG3 / RFU, DIAPH2 / Fold change vs veh, DIAPH2 / RFU, SKA2 / Fold change vs veh, SKA2 / RFU, AFF3 / Fold change vs veh, AFF3 / RFU, LMF1 / Fold change vs veh, LMF1 / RFU, IPO11 / Fold change vs veh, IPO11 / RFU, DFFB / Fold change vs veh, DFFB / RFU, FOXP1 / Fold change vs veh, FOXP1 / RFU, CARD8 / Fold change vs veh, CARD8 / RFU, STRN3 / Fold change vs veh, STRN3 / RFU, ADK / Fold change vs veh, ADK / RFU, RASSF2 / Fold change vs veh, RASSF2 / RFU, WIPF1 / Fold change vs veh, WIPF1 / RFU, LARP1B / Fold change vs veh, LARP1B / RFU, RASA1 / Fold change vs veh, RASA1 / RFU, RB1 / Fold change vs veh, RB1 / RFU, PPFIA1 / Fold change vs veh, PPFIA1 / RFU, MAT2A / Fold change vs veh, MAT2A / RFU, CCT5 / Fold change vs veh, CCT5 / RFU, WDR92 / Fold change vs veh, WDR92 / RFU, CUX1 / Fold change vs veh, CUX1 / RFU, TTC7A / Fold change vs veh, TTC7A / RFU, TMEM135 / Fold change vs veh, TMEM135 / RFU, DEPTOR / Fold change vs veh, DEPTOR / RFU, CPM / Fold change vs veh, CPM / RFU, DNAJB6 / Fold change vs veh, DNAJB6 / RFU, CACNA2D3 / Fold change vs veh, CACNA2D3 / RFU, DTX4 / Fold change vs veh, DTX4 / RFU, TFCP2 / Fold change vs veh, TFCP2 / RFU, GMCL1 /// GMCL1P1 / Fold change vs veh, GMCL1 /// GMCL1P1 / RFU, AEBP2 / Fold change vs veh, AEBP2 / RFU, SNHG1 /// SNORD22 /// SNORD25 /// SNORD26 /// SNORD27 /// SNORD28 /// SNORD29 /// SNORD31 / Fold change vs veh, SNHG1 /// SNORD22 /// SNORD25 /// SNORD26 /// SNORD27 /// SNORD28 /// SNORD29 /// SNORD31 / Fold change (Aza/veh), C12orf56 (ProbeSet 11735607_a_at) / Fold change (ACY-1035/veh), C12orf56 (ProbeSet 11735607_a_at) / Fold change (Aza/veh), FGFR1OP (ProbeSet 11751329_s_at) / Fold change (ACY-1035/veh), FGFR1OP (ProbeSet 11751329_s_at) / Fold change (Aza/veh), VPS36 (ProbeSet 11739960_a_at) / Fold change (ACY-1035/veh), VPS36 (ProbeSet 11739960_a_at) / RFU SYPL1 (11715823_x_at) / Fold change /veh SYPL1 (11715823_x_at) / RFU IGFBP7 (11715501_s_at) / Fold change /veh IGFBP7 (11715501_s_at) / RFU REEP3 (11722064_at) / Fold change /veh REEP3 (11722064_at) / RFU IGLL1 (11728026_x_at) / Fold change /veh IGLL1 (11728026_x_at): dose or concentration left out as unconfirmed",
  "settings": "ProbeSet 11740011_at; LIST B",
  "data": [
    {"smiles": "Nc1ncn([C@@H]2O[C@H](CO)[C@@H](O)[C@H]2O)c(=O)n1", "note": "[azacitidine]", "values": [
      {"measurement": "Fold change vs veh, ZFP14", "value": 0.92}
    ]}
  ]
}
